Reference: patent US9862686B2, “N1-sulfonyl-5-fluoropyrimidinone derivatives” (Adama Makhteshim Ltd., priority 2009, dated 2018)
Where two headings read alike, the source gives them in different places. Values belong to the molecule of their own block, whether it stands above or below them.

How the values were obtained:
[1] = system: Mycosphaerella graminicola; Anamorph: Septoria tritici; Bayer Code SEPTTR; assay: Fungicidal activity: leaf blotch of wheat, protectant and curative treatment of inoculated wheat plants; format: in vivo; conditions: Zymoseptoria tritici
Protocol: Evaluation of Fungicidal Activity: Leaf Blotch of Wheat (Mycosphaerella graminicola; Anamorph: Septoria tritici; Bayer Code SEPTTR)
Wheat plants (variety Yuma) were grown from seed in a greenhouse in 50% mineral soil/50% soil-less Metro mix until the first leaf was fully emerged, with 7-10 seedlings per pot. These plants were inoculated with an aqueous spore suspension of Septoria tritici either prior to or after fungicide treatments. After inoculation the plants were kept in 100% relative humidity (one day in a dark dew chamber followed by two to three days in a lighted dew chamber) to permit spores to germinate and infect the leaf. The plants were then transferred to a greenhouse for disease to develop.
The following table presents the activity of typical compounds of the present disclosure when evaluated in these experiments. The effectiveness of the test compounds in controlling disease was determined by assessing the severity of disease on treated plants, then converting the severity to percent control based on the level of disease on untreated, inoculated plants.
In each case of Table II the rating scale is as follows: […]

[2] = 24 h, read-out: SEPTTR 100 PPM 1DP (% Disease Control rating)
[3] = 72 h, read-out: SEPTTR 100 PPM 3DC (% Disease Control rating)

melting point: 182 to 185 °C
Structure (SMILES): O=c1nc(NC(=S)Nc2ccccc2)c(F)cn1S(=O)(=O)c1cccs1 [Cmpd 46]
pest or weed control at 100 ppm ([1]; 24 h, One-Day Protectant (1DP), 100 ppm, wheat plants (variety Yuma), percent control vs untreated inoculated plants, read-out: SEPTTR 100 PPM 1DP (% Disease Control rating)): 0 to 25%
pest or weed control at 100 ppm ([1]; 72 h, Three-Day Curative (3DC), 100 ppm, wheat plants (variety Yuma), percent control vs untreated inoculated plants, read-out: SEPTTR 100 PPM 3DC (% Disease Control rating)): 26 to 50%

Structure (SMILES): O=C(Nc1nc(=O)n(S(=O)(=O)c2ccccc2)cc1F)Oc1ccccc1 [Cmpd 47, (1-benzenesulfonyl-5-fluoro-2-oxo-1,2-dihydropyrimidin-4-yl)carbamic acid phenyl ester]
pest or weed control at 100 ppm [1, 2]: 51 to 75%
pest or weed control at 100 ppm [1, 3]: 76 to 100%
melting point: 182 to 185 °C

Structure (SMILES): COc1ccc(S(=O)(=O)n2cc(F)c(NC(=O)Oc3ccccc3)nc2=O)cc1 [Cmpd 49]
pest or weed control at 100 ppm [1, 2]: 0 to 25%
pest or weed control at 100 ppm [1, 3]: 76 to 100%
melting point: 138 to 142 °C

Structure (SMILES): O=C(Nc1nc(=O)n(S(=O)(=O)c2c(Cl)cccc2Cl)cc1F)Oc1ccccc1 [Cmpd 50]
pest or weed control at 100 ppm [1, 2]: 76 to 100%
pest or weed control at 100 ppm [1, 3]: 76 to 100%
melting point: 199 to 203 °C
